The values below come from ChEMBL document CHEMBL1147817, “Two novel furan derivatives from Phellinus linteus with anti-complement activity” (Bioorg Med Chem Lett, 2006).

The structures appear in SMILES notation.

The test can be described thus: Inhibition of classical pathway of the complement system. The format is functional, Homo sapiens.
As to `CO[C@H]1O[C@@H](C(O)CO)/C(=C/c2ccc(CO)o2)C1=O` (stereo partly drawn) [PHELLINUSFURAN A], the IC50 was determined as 33.6 µM.
For the compound `CO[C@H]1O[C@H](C(O)CO)/C(=C/c2ccc(CO)o2)C1=O` (stereo partly drawn) [PHELLINUSFURAN B], half-maximal inhibition (IC50) required 33.7 µM. The IC50 values of the last two compounds are within 1.5-fold of each other.
The result for `O=C(/C=C/c1ccc(O)c(O)c1)O[C@H](Cc1ccc(O)c(O)c1)C(=O)O` [ROSMARINIC ACID] reads 180 µM.
